According to patent publication US8748434B2 (Hoffman-La Roche Inc., priority 2012, dated 2014):

Molecular target: T1, human GPBAR1 receptor (Homo sapiens, UniProt Q8TDU6)
T1 construct: expressed in transfected cells
T1 sequence (Q8TDU6 1-330): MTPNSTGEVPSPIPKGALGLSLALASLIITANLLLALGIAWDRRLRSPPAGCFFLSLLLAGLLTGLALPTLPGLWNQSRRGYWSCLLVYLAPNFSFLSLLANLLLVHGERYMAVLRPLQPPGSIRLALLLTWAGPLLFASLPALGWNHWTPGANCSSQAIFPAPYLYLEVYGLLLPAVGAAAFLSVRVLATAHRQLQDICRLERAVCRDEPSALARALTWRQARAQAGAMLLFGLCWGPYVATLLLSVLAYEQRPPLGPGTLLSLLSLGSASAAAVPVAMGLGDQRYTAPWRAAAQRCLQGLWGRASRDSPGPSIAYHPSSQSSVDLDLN
Experiment: functional cAMP assay in CHO-dhfr(minus) cells expressing human GPBAR1 receptors
Assay type: cell-based
Settings: CHO-dhfr(minus) cells expressing human GPBAR1, compounds incubated 30 min at 30° C.
From the text: The cDNA of the human GPBAR1 receptor (Genbank: NM 170699 with the exception of a silent C:G mutation at position 339 from the start codon) was amplified by polymerase chain reaction (PCR) from human cDNA and inserted into pCineo (Promega) by standard methods (Current Protocols in Molecular Biology, Wiley Press, ed. Ausubel et al.). The final clone was verified by DNA sequence analysis. The plasmid was transfected into CHO cells deficient in dihydrofolate reductase activity (CHO-dhfr−) using Lipofectamine plus (Invitrogen). Clones were isolated in limited dilution conditions and identified by activities in the cAMP assay using lithocholic acid as agonist. A clonal cell line displaying the greatest activity in cAMP increases was selected and identified as giving consistently good responses for up to at least 20 passages.
CHO-dhfr(minus) cells expressing human GPBAR1 receptors are seeded 17-24 hours prior to the experiment 50.000 cells per well in a black 96 well plate with flat clear bottom (Corning Costar #3904) in DMEM (Invitrogen No. 31331), 1×HT supplement, with 10% fetal calf serum and incubated at 5% CO2 and 37° C. in a humidified incubator. The growth medium was exchanged with Krebs Ringer Bicarbonate buffer with 1 mM IBMX and incubated at 30° C. for 30 min. Compounds were added to a final assay volume of 100 μl and incubated for 30 min at 30° C. The assay was stopped by the addition of 50 μl lysis reagent (Tris, NaCl, 1.5% Triton X100, 2.5% NP40, 10% NaN3) and 50 μl detection solutions (20 μM mAb Alexa700-cAMP 1:1, and 48 μM Ruthenium-2-AHA-cAMP) and shaked for 2 h at room temperature. The time-resolved energy transfer is measured by a TRF reader (Evotec Technologies GmbH, Hamburg Germany), equipped with a ND:YAG laser as excitation source. The plate is measured twice with the excitation at 355 nm and at the emission with a delay of 100 ns and a gate of 100 ns, total exposure time 10 s at 730 (bandwidth 30 nm) or 645 nm (bandwidth 75 nm), respectively. The measured signal at 730 nm has to be corrected for the ruthenium background, the direct excitation of Alexa and the buffer control. The FRET signal is calculated as follows: FRET=T730−Alexa730−P(T645−B645) with P=R^u730−B730/Ru645−B645, where T730 is the test well measured at […], T645 is the test well measured at 645 nm, B730 and B645 are the buffer controls at 730 nm and 645 nm, respectively. cAMP content is determined from the function of a standard curve spanning from 10 μM to 0.13 nM cAMP.
EC50 values were determined using Activity Base analysis (ID Business Solution, Limited). The EC50 values for a wide range of bile acids generated from this assay were in agreement with the values published in the scientific literature. Specificity for GPBAR1 was tested in non-transfected CHO cells in the same assay as above.

Row | SMILES | EC50
1 | CN(C(=O)c1cc(C(F)(F)F)cc(C(F)(F)F)c1)c1nnc(Cl)cc1-c1ccccc1 [Example 7, N-(6-Chloro-4-phenyl-pyridazin-3-yl)-N-methyl-3,5-bis-trifluoromethyl-benzamide] | 299 nM
2 | Cc1cc(-c2cccnc2OCC(F)(F)F)c(N(C)C(=O)c2cc(C(F)(F)F)cc(S(C)(=O)=O)c2)nn1 [Example 13, 3-Methanesulfonyl-N-methyl-N-{6-methyl-4-[2-(2,2,2-trifluoro-ethoxy)-pyridin-3-yl]-pyridazin-3-yl}-5-trifluoromethyl-benzamide] | 3910 nM
3 | Cc1ccccc1-c1cnncc1N(C)C(=O)c1cc(C(F)(F)F)cc(S(=O)(=O)CCCC(=O)O)c1 [Example 18, 4-{3-[Methyl-(5-o-tolyl-pyridazin-4-yl)-carbamoyl]-5-trifluoromethyl-benzenesulfonyl}-butyric acid] | > 10000 nM
4 | COc1cc(F)ccc1-c1cnncc1N(C)C(=O)c1cc(C(F)(F)F)cc(S(C)(=O)=O)c1 [Example 14, N-[5-(4-Fluoro-2-methoxy-phenyl)-pyridazin-4-yl]-3-methanesulfonyl-N-methyl-5-trifluoromethyl-benzamide] | 230 nM
5 | CN(C(=O)c1cc(C(F)(F)F)cc(S(C)(=O)=O)c1)c1nnccc1-c1cccnc1OCC(F)(F)F [Example 12, 3-Methanesulfonyl-N-methyl-N-{4-[2-(2,2,2-trifluoro-ethoxy)-pyridin-3-yl]-pyridazin-3-yl}-5-trifluoromethyl-benzamide] | 160 nM
6 | Cc1ccccc1-c1cc(Cl)nnc1N(C)C(=O)c1cc(C(F)(F)F)cc(S(C)(=O)=O)c1 [Example 4, N-(6-Chloro-4-o-tolyl-pyridazin-3-yl)-3-methanesulfonyl-N-methyl-5-trifluoromethyl-benzamide] | 2180 nM
7 | COc1cc(F)ccc1-c1cc(C)nnc1N(C)C(=O)c1cc(C(F)(F)F)cc(S(C)(=O)=O)c1 [Example 3, N-[4-(4-Fluoro-2-methoxy-phenyl)-6-methyl-pyridazin-3-yl]-3-methanesulfonyl-N-methyl-5-trifluoromethyl-benzamide] | 178 nM
8 | Cc1ccccc1-c1cc(Cl)nnc1N(C)C(=O)c1cc(C(F)(F)F)cc(S(=O)(=O)CCCC(=O)O)c1 [Example 10, 4-{3-[(6-Chloro-4-o-tolyl-pyridazin-3-yl)-methyl-carbamoyl]-5-trifluoromethyl-benzenesulfonyl}-butyric acid] | 8180 nM
9 | Cc1ccccc1-c1cnncc1N(C)C(=O)c1cc(C(F)(F)F)cc(S(=O)(=O)CCCC(=O)OC(C)(C)C)c1 [Example 17, 4-{3-[Methyl-(5-o-tolyl-pyridazin-4-yl)-carbamoyl]-5-trifluoromethyl-benzenesulfonyl}-butyric acid tert-butyl ester] | 775 nM
10 | Cc1ccccc1-c1cnncc1N(C)C(=O)c1cc(Cl)cc(S(C)(=O)=O)c1 [Example 16, 3-Chloro-5-methanesulfonyl-N-methyl-N-(5-o-tolyl-pyridazin-4-yl)-benzamide] | 663 nM
11 | Cc1ccccc1-c1ncncc1N(C)C(=O)c1cc(C(F)(F)F)cc(C(F)(F)F)c1 [Example 19, N-Methyl-N-(4-o-tolyl-pyrimidin-5-yl)-3,5-bis-trifluoromethyl-benzamide] | 1480 nM
12 | COc1cc(F)ccc1-c1ccnnc1N(C)C(=O)c1cc(C(F)(F)F)cc(S(C)(=O)=O)c1 [Example 2, N-[4-(4-Fluoro-2-methoxy-phenyl)-pyridazin-3-yl]-3-methanesulfonyl-N-methyl-5-trifluoromethyl-benzamide] | 75 nM
13 | CN(C(=O)c1cc(C(F)(F)F)cc(S(C)(=O)=O)c1)c1nnc(Cl)cc1-c1ccccc1 [Example 5, N-(6-Chloro-4-phenyl-pyridazin-3-yl)-3-methanesulfonyl-N-methyl-5-trifluoromethyl-benzamide] | 2690 nM
14 | Cc1ccccc1-c1cnncc1N(C)C(=O)c1cc(C(F)(F)F)cc(S(C)(=O)=O)c1 [Example 15, 3-Methanesulfonyl-N-methyl-N-(5-o-tolyl-pyridazin-4-yl)-5-trifluoromethyl-benzamide] | 429 nM
15 | COc1cc(F)ccc1-c1cc(Cl)nnc1N(C)C(=O)c1cc(C(F)(F)F)cc(S(C)(=O)=O)c1 [Example 1, N-[6-Chloro-4-(4-fluoro-2-methoxy-phenyl)-pyridazin-3-yl]-3-methanesulfonyl-N-methyl-5-trifluoromethyl-benzamide] | 165 nM
16 | COc1ncccc1-c1cc(Cl)nnc1N(C)C(=O)c1cc(C(F)(F)F)cc(S(C)(=O)=O)c1 [Example 8, N-[6-Chloro-4-(2-methoxy-pyridin-3-yl)-pyridazin-3-yl]-3-methanesulfonyl-N-methyl-5-trifluoromethyl-benzamide] | 1520 nM
17 | CN(C(=O)c1cc(C(F)(F)F)cc(S(=O)(=O)N2CCOCC2)c1)c1nnc(Cl)cc1-c1ccccc1 [Example 6] | 427 nM
18 | CN(C(=O)c1cc(C(F)(F)F)cc(S(C)(=O)=O)c1)c1nnc(Cl)cc1-c1cccnc1OCC(F)(F)F [Example 11, N-{6-Chloro-4-[2-(2,2,2-trifluoro-ethoxy)-pyridin-3-yl]-pyridazin-3-yl}-3-methanesulfonyl-N-methyl-5-trifluoromethyl-benzamide] | 2390 nM
